In PubChem BioAssay AID1918934 (Molecular Pharmacology Branch, DTP, NCI, 2023) one finds IC50 and viability, T/C data, which are given here for four molecules.

Values joined by “and” are separate entries in the source; they are usually repeats but may differ in a detail not shown here. Equal values may be shown once.

This assay has as its system 292921-168-R-J2-PDC complex spheroid viability. In words: Anticancer human tumor 292921-168-R-J2-PDC patient-derived pancreatic carcinoma cell line growth inhibition. The settings on record: for viability, T/C: stronger effect = lower value. The text has this: Multicellular complex tumor spheroid response to LSD1 Inhibitor Iadademstat in combination with a variety of drugs and investigational agents in selected tumor cell lines
The current study was undertaken to assess response to LSD1 inhibitors in combination with standard-of-care drugs and investigational agents in solid tumor complex spheroid models as well as in the K-562 leukemia. Complex spheroids include a stromal component modeled by human endothelial cells (HUVEC) and fibroblasts modeled by human mesenchymal stem cells (MSCs). The concentration ranges selected for each drug and investigational agent were based upon clinically achievable concentrations if the clinical Cmax of the agent was known.
Compounds. The drugs and investigational agents used in this study are listed on Table 1. All of the agents used, including staurosporine (NSC755774) and gemcitabine (NSC613327), were obtained from the Developmental Therapeutics Program, NCI. FDA-approved anticancer drugs are available from the NCI at http://dtp.nci.nih.gov/branches/dscb/oncology_drugset_explanation.html. Drugs and investigational agents were >95% pure by proton nuclear magnetic resonance (NMR) and liquid chromatography/mass spectrometry (LC/MS). Stock solutions were prepared at 400x in DMSO, stored at -70 degrees C, and diluted in fresh medium prior to their use. The final concentration of DMSO in cell culture wells never exceeded 0.25% (v/v). The FDA-approved anticancer drug set is available from the Developmental Therapeutics Program at https://dtp.cancer.gov/organization/dscb/obtaining/available_plates.htm. All drugs and investigational agents were tested over a range starting from a high concentration at or near the clinical Cmax and decreasing in half-log increments. If the clinical Cmax for an agent had not been determined, the highest concentration tested was 10 microM.
Cell Lines. The patient-derived cancer cell (PDC) lines: 292921-168-R-J2-PDC, K24384-001-R-PDC, and 521955-158-R2-J5-PDC pancreatic carcinomas, 556581-035-R-J1 ovarian carcinoma, 324938-238-R-J1-PDC, 855422-203-R-J1-PDC and 883617-216-R-J1-PDC urothelial bladder carcinomas, 743489-274-T-PDC renal cell carcinoma, 138582-R-J1 Merkel cell tumor, K60290-347-R-J1 and K57222-313-R-J1-PDC glioblastomas, 653999-131-R-J2-PDC, LG0703-F948-PDC, and 349418-098-R-PDC non-small cell lung carcinomas, 885512-296-R-J2-PDC, 171881-019-R-J1-PDC breast carcinomas and 186277-243-T-J2-PDC and 233499-124-R-J2-PDC colon carcinomas were obtained from the NCI Patient-Derived Models Repository (PDMR, https://pdmr.cancer.gov). The established cell lines NCI/ADR-RES (RRID:CVCL_14520 and OVCAR-5 (RRID:CVCL_1628) ovarian carcinomas, 786-O (RRID:CVCL_1051) and A498 (RRID:CVCL_A498) renal cell carcinoma, NCI-H211 (ATCC, cat. CRL-5824; RRID:CVCL_1529), NCI-H196 (ATCC, cat. CRL-5823, RRID:CVCL_1509), SW 1271 (ATCC, cat. CRL-2177, RRID:CVCL_1716) and NCI-H1876 (ATCC, cat. CRL-5902, RRID:CVCL_1503) small cell lung carcinomas, MDA-MB-231 (RRID:CVCL_0062) and MDA-MB-468 (RRID:CVCL_0419)breast carcinomas (10-12). Pooled donor human umbilical vein endothelial cells (HUVEC, Lonza, cat. CC-2519) and human mesenchymal stem cells (hMSC, Lonza, cat. PT-2501) were purchased from Lonza (Walkersville, MD).
Cell Culture. All cells were maintained in an incubator at 37 degrees C and 5% CO2 with 95% humidity. The PDC lines were cultured according to standard operating procedures established by the NCI PDMR (https://pdmr.cancer.gov). Briefly all PDCs were thawed and cultured in Matrigel-coated flasks prepared with a working solution of 1X Ham's F-12 nutrient mix, without supplementation (Invitrogen, Waltham, MA, cat. 11765054), 100 U/mL penicillin-streptomycin (Invitrogen, cat. 15140122), and 2.5% Matrigel (Corning Inc., Corning, NY, cat. 354248) for the first three passages. […]

[1] abbreviates: curve of first compound, second compound 0.1 µM.
[2] abbreviates: curve of first compound, second compound 0.316 µM.
[3] abbreviates: curve of first compound, second compound 1 µM.
Setting [4] is: curve of first compound, second compound 3.16 µM.
Where [5] appears, read: curve of first compound, second compound 10 µM.
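Note: seven day compound exposure before luminescent viability read.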
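Throughout, for viability, T/C: 100% = DMSO vehicle control wells.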

In the case of `COc1ccc([C@@H](O)c2cc(-c3ncnc4cc(N5CCOCC5)ccc34)c(F)cc2Cl)nn1` + NC1CC1c1ccc(-c2cccc(O)c2)cc1, the 50% inhibitory concentration (IC50) was 403 nM under setting [1]; 270 nM under setting [2]; 158 nM under setting [3]; 131 nM under setting [4]; less than 31.6 nM under setting [5]. Also, the viability, T/C (second compound 0.1 µM, first compound 0.0316 µM) was 73.1%; the viability, T/C (second compound 0.1 µM, first compound 0.1 µM) is 73.9%; the viability, T/C (second compound 0.1 µM, first compound 0.316 µM) is 53.5%; the viability, T/C (second compound 0.1 µM, first compound 1 µM) was 30.8%; the viability, T/C (second compound 0.1 µM, first compound 3.16 µM) is 20.9%; the viability, T/C (second compound 0.1 µM, first compound 10 µM) is 10.5%. Also, the viability, T/C by setting is: (second compound 0.316 µM, first compound 0.0316 µM) 72.5%; (second compound 0.316 µM, first compound 0.1 µM) 69.6%; (second compound 0.316 µM, first compound 0.316 µM) 44.4%; (second compound 0.316 µM, first compound 1 µM) 28.2%; (second compound 0.316 µM, first compound 3.16 µM) 18.2%; (second compound 0.316 µM, first compound 10 µM) 10.7%. For the same molecule, the viability, T/C (second compound 1 µM, first compound 0.0316 µM) was 57.7%; the viability, T/C (second compound 1 µM, first compound 0.1 µM) is 56.9%; the viability, T/C (second compound 1 µM, first compound 0.316 µM) is 41.9%; the viability, T/C (second compound 1 µM, first compound 1 µM) was 28.1%; the viability, T/C (second compound 1 µM, first compound 3.16 µM) is 18%; the viability, T/C (second compound 1 µM, first compound 10 µM) was 11.3%. The viability, T/C (second compound 3.16 µM, first compound 0.0316 µM) was 54.9%; the viability, T/C (second compound 3.16 µM, first compound 0.1 µM) was 55.8%; the viability, T/C (second compound 3.16 µM, first compound 0.316 µM) is 38.8%; the viability, T/C (second compound 3.16 µM, first compound 1 µM) is 23.4%; the viability, T/C (second compound 3.16 µM, first compound 3.16 µM) is 16.8%; the viability, T/C (second compound 3.16 µM, first compound 10 µM) is 11.5%. In addition, the viability, T/C is 44.6% (second compound 10 µM, first compound 0.0316 µM); 43.3% (second compound 10 µM, first compound 0.1 µM); 30% (second compound 10 µM, first compound 0.316 µM); 20.8% (second compound 10 µM, first compound 1 µM); 15.5% (second compound 10 µM, first compound 3.16 µM); 12.2% (second compound 10 µM, first compound 10 µM).

Turning to `O=C(C=Cc1cccc(S(=O)(=O)Nc2ccccc2)c1)NO` + NC1CCC(NC2CC2c2ccccc2)CC1, the IC50 by setting is: under setting [1], less than 9.49 nM; under setting [2], less than 9.49 nM; under setting [3], less than 9.49 nM; under setting [4], less than 9.49 nM; under setting [5], less than 9.49 nM. Besides, the viability, T/C (second compound 0.1 µM, first compound 0.00949 µM) is 44%; the viability, T/C (second compound 0.1 µM, first compound 0.03 µM) is 36.2%; the viability, T/C (second compound 0.1 µM, first compound 0.0949 µM) was 28.6%; the viability, T/C (second compound 0.1 µM, first compound 0.3 µM) was 17.3%; the viability, T/C (second compound 0.1 µM, first compound 0.949 µM) is 0.45%; the viability, T/C (second compound 0.1 µM, first compound 3 µM) was 0.08%. The viability, T/C was 48.7% (second compound 0.316 µM, first compound 0.00949 µM); 34.8% (second compound 0.316 µM, first compound 0.03 µM); 31.6% (second compound 0.316 µM, first compound 0.0949 µM); 19.1% (second compound 0.316 µM, first compound 0.3 µM); 0.37% (second compound 0.316 µM, first compound 0.949 µM); 0.38% (second compound 0.316 µM, first compound 3 µM). For the same molecule, the viability, T/C by setting is: (second compound 1 µM, first compound 0.00949 µM) 43.8%; (second compound 1 µM, first compound 0.03 µM) 35.6%; (second compound 1 µM, first compound 0.0949 µM) 30.9%; (second compound 1 µM, first compound 0.3 µM) 15.2%; (second compound 1 µM, first compound 0.949 µM) 0.34%; (second compound 1 µM, first compound 3 µM) 0.09%. Further, the viability, T/C was 40% (second compound 3.16 µM, first compound 0.00949 µM); 33.4% (second compound 3.16 µM, first compound 0.03 µM); 24.4% (second compound 3.16 µM, first compound 0.0949 µM); 12.4% (second compound 3.16 µM, first compound 0.3 µM); 0.19% (second compound 3.16 µM, first compound 0.949 µM); 0.08% (second compound 3.16 µM, first compound 3 µM). Also, the viability, T/C runs as follows: (second compound 10 µM, first compound 0.00949 µM) 42.2%; (second compound 10 µM, first compound 0.03 µM) 32.4%; (second compound 10 µM, first compound 0.0949 µM) 22.9%; (second compound 10 µM, first compound 0.3 µM) 7.61%; (second compound 10 µM, first compound 0.949 µM) 0.12%; (second compound 10 µM, first compound 3 µM) 0.13%.

In the case of `O=C(c1cc(Cc2n[nH]c(=O)c3ccccc23)ccc1F)N1CCN(C(=O)C2CC2)CC1`, the viability, T/C by setting is: (compound 0.0316 µM) 106% and 100%; (compound 0.1 µM) 98.8% and 100%; (compound 0.316 µM) 98.5% and 99.6%; (compound 1 µM) 95.4% and 85.9%; (compound 3.16 µM) 74.9% and 73%; (compound 10 µM) 48.1% and 42.4%. The IC50 (curve of compound) was 9280 nM and 7490 nM.

Take `COc1cc(C2c3cc4c(cc3C(OC3OC5COC(C)OC5C(O)C3O)C3COC(=O)C23)OCO4)cc(OC)c1O` (centres undefined): the viability, T/C runs as follows: (compound 0.00949 µM) 91.1% and 92%; (compound 0.03 µM) 57.8% and 69.4%; (compound 0.0949 µM) 26.8% and 28.4%; (compound 0.3 µM) 17.8% and 16.7%; (compound 0.949 µM) 8.57% and 7.24%; (compound 3 µM) 5.06% and 4.06%. For the same molecule, under “curve of compound”, the IC50 was 39.7 nM and 52.7 nM.
